Assays:
MDA-MB-453 = experiment: Inhibition of cell proliferation by payloads in vitro (CCK-8); assay type: cell-based; details: Homo sapiens, MDA-MB-453, 144 h, read-out: IC50, nM MDA-MB-453; payloads, proliferation, 6 days, CCK-8
Description: (§1) The cells were added to a 96-well plate at 1.0×10^3 cells/well and 100 μL/well and incubated in a cell culture incubator at 37° C. and 5% CO2. The test compounds were diluted with a DMEM medium containing 2% DMSO (Sigma-Aldrich, Cat. No. 34869) in a 4-fold gradient to the corresponding concentrations. […] The final concentration of DMSO was 0.2%. The cells were incubated in a cell culture incubator at 37° C. and 5% CO2 for 6 days.
(§2) After 6 days of culture, 10 μL/well of Cell Counting Kit-8 reagent (CCK-8, Dojindo, Cat. No. CK04) was added to the wells and mixed well with shaking. The cells were incubated in a cell culture incubator at 37° C. and 5% CO2 for 0.50-4.0 hours.
(§3) The OD450 optical density value was read on an EnVision™ multi-function microplate reader (PerkinElmer), and the inhibition rates (%) of the compounds were calculated. Then, the half-maximal inhibitory concentration (IC50) values were obtained using the XLfit5 software (ID Business Solutions Limited). All samples were tested in duplicate wells.
(§4) [formula] • wherein • OD450test compound represents the optical density value in the wells of the compounds to be tested; • OD450cell represents the optical density value in the wells of cell controls; • OD450background represents the optical density value in the wells of cell-free controls.

MDA-MB-468 = experiment: as above; assay type: cell-based; details: Homo sapiens, MDA-MB-468, 144 h; payloads, proliferation, 6 days, CCK-8; read-out: IC50, nM MDA-MB-468
Description: as §1, §2, §3, §4

[1] = biological target: T1, Human PIK3CA/PIK3R1 (p110α/p85α) recombinant protein (Homo sapiens, UniProt P42336); experiment: PIK3CA/PIK3R1 (p110α/p85α) kinase activity, Transcreener ADP2 FP; assay type: biochemical; details: 10 μM ATP, 30 μM PIP2:PS; read-out: PIK3CA/PIK3R1 (p110α/p85α) (Enzyme, IC50)
T1 construct: His tag; purchased Invitrogen PV4788
Description: The complex formed by the binding of the ADP Alexa633 Tracer to the ADP2 antibody therein could produce fluorescence polarization. […] Assay is carried out according to the instruction of the kit. […] After that, 10 μl PIK3CA/PIK3R1 (p110α/p85α) enzyme solution was added to each well; then, 10 μl of a mixed solution of ATP and PIP2:PS lipid kinase substrate was added to each well, and the mixture was centrifuged at 1000 rpm for 60 seconds; Then, the 96-well plate was placed in a constant temperature incubator protected from light and incubated at room temperature for 1 hour. […] After the enzymatic reaction was completed, 25 μl of ADP detection mixture was added to the positive control group, 25 μl of ADP detection mixture without ADP^2 antibody was added to the negative control group, and 25 μl of ADP detection mixture without tracer-label ADP and ADP^2 antibody was added to the blank control group. Then centrifugation was performed at 1000 rpm for 60 seconds. The 96-well plate was placed in a constant temperature incubator protected from light, and incubated at room temperature for 1.5 hours. […] [formula] The inhibition rate was calculated using the formula as below: [formula]

[2] = biological target: T2, Human FRAP1 (mTOR) recombinant protein (Homo sapiens, UniProt P42345); experiment: FRAP1 (mTOR) kinase activity, LanthaScreen TR-FRET; assay type: biochemical; details: 10 μM ATP, 0.4 μM GFP-4EBP1; read-out: FRAP1 (mTOR) (Enzyme, IC50)
T2 construct: GST; purchased Invitrogen PV4753
Description: Determination of FRAP1 (mTOR) Kinase Activity • Human FRAP1 (mTOR) recombinant protein (GST tag): Invitrogen, Cat. No. PV4753; • GFP-4E-BP1: Thermo Scientific, Cat. No. PV4759; • LanthaScreenTM Tb-p4E-BP1 ([…]) antibody: Thermo Scientific, Cat. No. PV4755; • TR-FRET dilution buffer: Thermo Scientific, Cat. No. PV3574; • ATP solution (10 mM): Thermo Scientific, Cat. No. PV3227; • HEPES (1 M): Gibco, Cat. No. 15630-106; • EDTA (0.5 M), pH 8.0, RNase-free: Invitrogen, Cat. No. A[…]; • Manganese chloride solution: Sigma-Aldrich, Cat. No. M1787; • EGTA: Sigma-Aldrich, Cat. No. E4378; • TWEEN®20: Sigma-Aldrich, Cat. No. P2287; • DTT: Sigma-Aldrich, Cat. No. DTT-RO; • 384-well plate: Corning, Cat. No. 3676; • 384-well plate: Corning, Cat. No. 4514; • Envision multi-mode plate reader: PerkinElmer; 4EBP1 is the substrate of mTOR, and when mTOR is activated, it will phosphorylate […] of the 4EBP1 protein. LanthaScreenTM kinase assay is used to detect the amount of phosphorylated substrate GFP-4E-BP1 produced in kinase activity experiments, thereby judging the mTOR kinase activity, and through the strength of the kinase activity, distinguishing the inhibitory effects of different compounds on the activity of FRAP1 (mTOR) kinase. […] Then, the 384-well plate was placed in a constant temperature incubator protected from light and incubated at room temperature for 1 hour. […] The 384-well plate was taken out and the plate was read using an Envision multi-mode plate reader (the excitation light wavelength was 320 nm and the emission light wavelengths were 495 nm and 520 nm). The inhibition rate was calculated using the formula as below: [formula]

ATM(h) = ATM(h) (Homo sapiens, UniProt Q13315); experiment: ATM(h) kinase activity, HTRF (Eurofins Cerep); assay type: biochemical; details: read-out: ATM(h) (enzyme, IC50)
Description: (§5) The […], ATM(h), ATR/ATRIP(h), and DNA-PK (h) were detected by HTRFR.
(§6) The calculation formula was as follows: […]
(§7) For IC50 determination, the data were analyzed using XLFit version 5.3 (ID Business Solutions).

DNA-PK(h) = biological target: T3, DNA-PK(h) (Homo sapiens, UniProt P78527); experiment: DNA-PK(h) kinase activity, HTRF (Eurofins Cerep); assay type: biochemical; details: read-out: DNA-PK(h) (enzyme, IC50)
T3 construct: purchased Eurofins Cerep 14-950
Description: as §5, §6, §7

ATR/ATRIP(h) = biological target: T4, ATR/ATRIP(h) (Homo sapiens, UniProt Q13535); experiment: ATR/ATRIP(h) kinase activity, HTRF (Eurofins Cerep); assay type: biochemical; details: read-out: ATR/ATRIP(h) (enzyme, IC50)
T4 construct: purchased Eurofins Cerep 14-953
Description: as §5, §6, §7

T1 sequence (P42336 whole entry): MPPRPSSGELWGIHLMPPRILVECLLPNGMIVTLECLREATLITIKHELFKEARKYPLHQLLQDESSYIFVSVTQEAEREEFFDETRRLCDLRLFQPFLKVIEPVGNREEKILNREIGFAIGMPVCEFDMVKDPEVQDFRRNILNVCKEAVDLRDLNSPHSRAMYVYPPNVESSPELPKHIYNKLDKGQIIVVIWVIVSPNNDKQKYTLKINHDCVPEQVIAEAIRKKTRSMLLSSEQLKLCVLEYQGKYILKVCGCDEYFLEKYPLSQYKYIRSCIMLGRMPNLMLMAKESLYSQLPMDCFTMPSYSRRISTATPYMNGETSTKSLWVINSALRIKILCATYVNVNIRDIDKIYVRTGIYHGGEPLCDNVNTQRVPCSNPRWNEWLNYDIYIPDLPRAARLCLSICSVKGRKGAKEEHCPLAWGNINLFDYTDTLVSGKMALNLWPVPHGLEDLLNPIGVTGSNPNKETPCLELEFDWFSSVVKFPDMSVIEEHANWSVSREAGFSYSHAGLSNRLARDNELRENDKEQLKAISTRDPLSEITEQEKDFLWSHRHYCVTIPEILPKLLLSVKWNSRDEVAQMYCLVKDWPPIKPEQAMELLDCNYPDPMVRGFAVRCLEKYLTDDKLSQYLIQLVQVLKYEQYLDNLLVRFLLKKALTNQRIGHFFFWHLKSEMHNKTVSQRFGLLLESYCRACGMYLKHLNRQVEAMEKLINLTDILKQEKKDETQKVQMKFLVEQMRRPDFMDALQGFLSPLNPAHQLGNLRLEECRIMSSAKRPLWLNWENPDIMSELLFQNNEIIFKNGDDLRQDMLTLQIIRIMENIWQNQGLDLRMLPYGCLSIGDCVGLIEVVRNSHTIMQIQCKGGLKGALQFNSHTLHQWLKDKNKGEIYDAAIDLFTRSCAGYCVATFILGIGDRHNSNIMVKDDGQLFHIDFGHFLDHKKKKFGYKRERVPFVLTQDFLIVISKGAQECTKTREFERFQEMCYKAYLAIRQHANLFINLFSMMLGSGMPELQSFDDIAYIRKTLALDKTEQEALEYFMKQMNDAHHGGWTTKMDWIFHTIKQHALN
T1 sequence (P27986 whole entry partner): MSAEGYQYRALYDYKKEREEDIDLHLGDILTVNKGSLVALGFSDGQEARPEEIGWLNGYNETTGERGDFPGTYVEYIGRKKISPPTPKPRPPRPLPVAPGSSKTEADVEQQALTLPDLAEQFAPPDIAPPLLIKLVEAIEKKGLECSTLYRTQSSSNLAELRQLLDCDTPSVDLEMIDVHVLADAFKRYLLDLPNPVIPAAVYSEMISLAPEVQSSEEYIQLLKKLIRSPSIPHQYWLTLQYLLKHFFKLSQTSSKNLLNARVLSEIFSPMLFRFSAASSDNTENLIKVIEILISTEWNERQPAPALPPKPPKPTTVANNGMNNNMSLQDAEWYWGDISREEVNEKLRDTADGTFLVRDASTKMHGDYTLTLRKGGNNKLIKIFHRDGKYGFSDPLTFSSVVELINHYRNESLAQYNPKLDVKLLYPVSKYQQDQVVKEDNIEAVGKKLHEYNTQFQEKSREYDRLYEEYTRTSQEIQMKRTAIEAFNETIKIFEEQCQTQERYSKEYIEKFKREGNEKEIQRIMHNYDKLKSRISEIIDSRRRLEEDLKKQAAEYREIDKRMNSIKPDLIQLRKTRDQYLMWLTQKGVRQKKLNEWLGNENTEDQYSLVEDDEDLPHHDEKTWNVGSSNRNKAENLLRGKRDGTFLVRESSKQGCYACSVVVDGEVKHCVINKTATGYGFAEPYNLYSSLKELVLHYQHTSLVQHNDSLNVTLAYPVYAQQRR
T2 sequence (P42345 1360-2549 limits assumed): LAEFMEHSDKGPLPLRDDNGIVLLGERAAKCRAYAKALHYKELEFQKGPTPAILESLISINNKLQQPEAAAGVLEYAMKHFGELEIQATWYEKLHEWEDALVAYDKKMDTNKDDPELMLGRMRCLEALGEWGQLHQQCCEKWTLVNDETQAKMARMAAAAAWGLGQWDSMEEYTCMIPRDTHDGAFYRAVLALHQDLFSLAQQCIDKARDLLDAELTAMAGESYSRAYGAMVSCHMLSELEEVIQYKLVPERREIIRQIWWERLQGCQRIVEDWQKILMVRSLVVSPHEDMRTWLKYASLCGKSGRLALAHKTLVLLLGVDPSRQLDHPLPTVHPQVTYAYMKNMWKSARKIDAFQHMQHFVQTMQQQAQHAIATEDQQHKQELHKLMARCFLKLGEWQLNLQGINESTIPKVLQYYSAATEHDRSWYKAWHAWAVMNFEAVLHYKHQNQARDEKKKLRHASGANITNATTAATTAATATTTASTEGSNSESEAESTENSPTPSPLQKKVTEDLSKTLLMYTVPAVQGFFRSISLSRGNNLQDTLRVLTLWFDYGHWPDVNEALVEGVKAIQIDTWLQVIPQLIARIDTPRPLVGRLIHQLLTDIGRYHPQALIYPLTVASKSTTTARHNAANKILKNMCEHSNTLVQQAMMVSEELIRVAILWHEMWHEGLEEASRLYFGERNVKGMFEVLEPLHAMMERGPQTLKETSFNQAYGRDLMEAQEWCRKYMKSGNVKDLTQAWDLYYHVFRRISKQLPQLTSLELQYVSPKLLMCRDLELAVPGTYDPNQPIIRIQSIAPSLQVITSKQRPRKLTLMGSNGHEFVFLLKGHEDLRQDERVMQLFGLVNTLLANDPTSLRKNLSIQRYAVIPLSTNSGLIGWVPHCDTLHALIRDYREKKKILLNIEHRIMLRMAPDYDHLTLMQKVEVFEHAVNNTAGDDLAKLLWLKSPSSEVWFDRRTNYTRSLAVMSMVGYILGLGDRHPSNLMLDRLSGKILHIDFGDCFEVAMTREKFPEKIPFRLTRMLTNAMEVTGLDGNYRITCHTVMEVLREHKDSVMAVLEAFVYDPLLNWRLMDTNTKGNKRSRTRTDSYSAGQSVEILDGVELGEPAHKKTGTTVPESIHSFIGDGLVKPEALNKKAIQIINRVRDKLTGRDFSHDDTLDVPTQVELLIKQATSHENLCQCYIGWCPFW

Compound	IC50 (MDA-MB-453) [nM]	IC50 (MDA-MB-468) [nM]	IC50 [1] [nM]	IC50 [2] [nM]	IC50 (ATM(h)) [nM]	IC50 (DNA-PK(h)) [nM]	IC50 (ATR/ATRIP(h)) [nM]
COc1ncc(-c2ccc3ncc4c(c3c2)n(C)c(=O)n4C)cc1NS(=O)(=O)N1CCNCC1 [Compound 6]	0.25	0.32	–	–	–	–	–
COc1ncc(-c2ccc3ncc4c(c3c2)n(C2CC2)c(=O)n4C)cc1NS(=O)(=O)C1CCNCC1 [Compound 14]	0.39	0.41	0.6	11.2	–	–	–
COc1ncc(-c2ccc3ncc4c(c3n2)n(C2CC2)c(=O)n4C)cc1NS(=O)(=O)N1CCNCC1 [Compound 28]	–	0.24	0.6	2.8	0.6	0.3	13
COc1ncc(-c2ccc3ncc4nnc(C5CCC5)n4c3c2)cc1NS(=O)(=O)N1CCNCC1 [Compound 4]	0.89	0.71	–	–	–	–	–
COc1ncc(-c2ccc3ncc4c(c3c2)n(C2CC2)c(=O)n4C)cc1NS(=O)(=O)N1CCC2(CC1)CNC2 [Compound 15]	14.9	18.4	–	–	–	–	–
COc1ncc(-c2ccc3ncc4c(c3c2)n(C2CC(F)(F)C2)c(=O)n4C)cc1NS(=O)(=O)N1CCNCC1 [Compound 25]	0.34	0.2	–	10.8	–	–	–
COc1ncc(-c2ccc3ncc4c(c3c2)n(C2CC2)c(=O)n4CC(F)(F)F)cc1NS(=O)(=O)N1CCNCC1 [Compound 33]	2.3	3	–	–	–	–	–
COc1ncc(-c2ccc3ncc4c(c3c2)n(C2COC2)c(=O)n4C)cc1NS(=O)(=O)N1CCNCC1 [Compound 16]	61.6	91.4	–	–	–	–	–
COc1ncc(-c2ccc3ncc4c(C)nc(C5CC5)n4c3c2)cc1NS(=O)(=O)N1CCNCC1 [Compound 31]	0.24	–	–	–	0.4	0.2	15
COc1ncc(-c2ccc3ncc4c(c3c2)n(C2CC2)c(=O)n4C)cc1NS(=O)(=O)N1CCN(C)CC1 [Compound 10]	2.3	–	–	–	–	–	–
COc1ncc(-c2ccc3ncc4c(c3c2)n(C2CCC2)c(=O)n4C)cc1NS(=O)(=O)N1CCNCC1 [Compound 5]	0.064	0.09	1.6	7.5	–	–	–
COc1ncc(-c2ccc3ncc4nnc(C5CC5)n4c3c2)cc1NS(=O)(=O)N1CCNCC1 [Compound 9]	–	1	–	–	–	–	–
COc1ncc(-c2ccc3ncc4c(c3c2)n(C2CC2)c(=O)n4C)cc1NS(=O)(=O)N1CC2CNCC2C1 (stereo not drawn) [Compound 12]	3.3	7.9	–	–	–	–	–
COc1ncc(-c2ccc3ncc4c(c3c2)n(C2CCCC2)c(=O)n4C)cc1NS(=O)(=O)N1CCNCC1 [Compound 19]	0.12	0.055	1.4	8.6	–	–	–
COc1ncc(-c2ccc3ncc4c(c3c2)n([C@H]2C[C@H](CO)C2)c(=O)n4C)cc1NS(=O)(=O)N1CCNCC1 [Compound 8]	0.32	0.21	–	–	–	–	–
COc1ncc(-c2ccc3ncc4ncc(C5CC5)n4c3c2)cc1NS(=O)(=O)N1CCNCC1 [Compound 23]	0.55	1.4	0.7	3.4	–	–	–
Cn1c(=O)n(C2CC2)c2c3cc(-c4cnc(OCC(F)(F)F)c(NS(=O)(=O)N5CCNCC5)c4)ccc3ncc21 [Compound 34]	2.8	3.4	–	–	–	–	–
COc1ncc(-c2ccc3ncc4c(c3c2)n([C@H]2C[C@H](CO)C2)c(=O)n4C)cc1NS(=O)(=O)N1CCN(C)CC1 [Compound 26]	1.8	1.9	–	–	–	–	–
[2H]C([2H])([2H])n1c(=O)n(C2CC2)c2c3cc(-c4cnc(OC)c(NS(=O)(=O)N5CCNCC5)c4)ccc3ncc21 [Compound 35]	0.22	0.2	–	–	–	–	–
COc1ncc(-c2ccc3ncc4ncn(C5CCC5)c4c3c2)cc1NS(=O)(=O)N1CCNCC1 [Compound 17]	1.8	3.4	–	–	–	–	–
COc1ncc(-c2ccc3ncc4c(c3c2)C(C2CC2)N=N4)cc1NS(=O)(=O)N1CCNCC1 (stereo not drawn) [Compound 13]	1.3	1.8	–	–	–	–	–
COc1ncc(-c2ccc3ncc4c(c3c2)n([C@@H]2C[C@@H]2F)c(=O)n4C)cc1NS(=O)(=O)N1CCNCC1 [Compound 27]	0.24	0.29	–	6.4	0.7	0.2	17
COc1ncc(-c2ccc3ncc4cnc(C)n4c3c2)cc1NS(=O)(=O)N1CCNCC1 [Compound 20]	–	1	–	–	–	–	–
COc1ncc(-c2ccc3ncc4c(c3c2)n([C@H]2C[C@H](O)C2)c(=O)n4C)cc1NS(=O)(=O)N1CCNCC1 [Compound 7]	0.3	0.22	0.5	2.7	–	–	–
COc1ncc(-c2ccc3ncc4nnc(C5CC5)n4c3c2)cc1NS(=O)(=O)N1CCN(C)CC1 [Reference compound 1, reference compound]	7.9	6	–	–	–	–	–
COc1ncc(-c2ccc3ncc4cnc(C5CC(F)(F)C5)n4c3c2)cc1NS(=O)(=O)N1CCNCC1 [Compound 24]	0.24	0.2	1.8	–	–	–	–
COc1ncc(-c2ccc3ncc4cnc(C5CCC5)n4c3c2)cc1NS(=O)(=O)N1CCNCC1 [Compound 18]	–	0.091	2.1	6.2	–	–	–
COc1ncc(-c2ccc3ncc4c(c3c2)n(C2CC2)c(=O)n4C)cc1NS(=O)(=O)N1CCN(CCO)CC1 [Compound 22]	6.5	9.2	–	–	–	–	–
COc1ncc(-c2ccc3ncc4nccn4c3c2)cc1NS(=O)(=O)N1CCNCC1 [Compound 21]	6.6	4.9	–	–	–	–	–
COc1ncc(-c2ccc3ncc4c(c3c2)n(CC(F)(F)F)c(=O)n4C)cc1NS(=O)(=O)N1CCNCC1 [Compound 32]	0.22	0.24	2.8	–	0.6	0.3	17

From patent publication US20260048138A1, “NOVEL PI3K AND/OR PIKK INHIBITORS, ANTIBODY-DRUG CONJUGATES COMPRISING THE SAME AND USES THEREOF” (HUTCHMED LIMITED, priority 2024, published 2026)
